Measurements reported in patent US20070049564A1 (Wyeth, priority 2005, published 2007).
Converted amounts (≈) assume the structure as drawn. Like-named read-outs stand apart in the source and are kept apart here.

How the values were obtained:
E. faecalis GC 2265 = assay: MIC, broth microdilution; details: Enterococcus faecalis, GC2265, E. faecalis GC 2265
S. pyogenes GC 4563 = assay: MIC, broth microdilution; details: Streptococcus pyogenes, GC4563, S. pyogenes GC 4563
E. coli GC 3226 = assay: MIC, broth microdilution; details: Escherichia coli, GC3226, E. coli GC 3226
S. pneumoniae+ GC 4465 = assay: MIC, broth microdilution; details: Streptococcus pneumoniae, S. pneumoniae+ GC 4465
Method: (§1) Antimicrobial susceptibility testing. The in vitro activities of the antibiotics are determined by the broth microdilution method as recommended by the National Committee for Clinical Laboratory Standards (NCCLS) (1). Mueller-Hinton II broth (MHBII)(BBL Cockeysville, Md.) is the medium employed in the testing procedures. Microtiter plates containing serial dilutions of each antimicrobial agent are inoculated with each organism to yield the appropriate density (10^5 CFU/ml) in a 100 μl final volume. The plates are incubated for 18-22 hours at 35° C. in ambient air.
(§2) Representative compounds were first incubated in mouse serum for an hour prior to the in vitro testing against a panel of selected gram-positive and gram-negative bacteria strains. All compounds were also pre-incubated in water for an hour prior to testing as control.

c. albicans GC 3066 = assay: MIC, broth microdilution
E. faecium GC 2243 = assay: MIC, broth microdilution; details: Enterococcus faecium, GC2243, E. faecium GC 2243
S. aureus GC 6469 = assay: MIC, broth microdilution; details: Staphylococcus aureus, GC6469, S. aureus GC 6469
S. aureus GC 4536 = assay: MIC, broth microdilution; details: Staphylococcus aureus, GC4536, S. aureus GC 4536
E. coli GC 1073 = assay: MIC, broth microdilution; details: Escherichia coli, GC1073, E. coli GC 1073
E. coli = assay: Range of MIC for E. coli strains; details: Escherichia coli
Method: as §1
Representative compounds were first incubated in mouse serum for an hour prior to the in vitro testing against a panel of selected gram-positive and gram-negative bacteria strains. All compounds were also pre-incubated in water for an hour prior to testing as control. Representative compounds of Formula I were incubated in human serum prior to MIC determination.

S. aureus GC 6335 = assay: MIC, broth microdilution; details: Staphylococcus aureus, GC6335, S. aureus GC 6335
S. aureus GC 2216 = assay: MIC, broth microdilution; details: Staphylococcus aureus, GC2216, S. aureus GC 2216
E. faecalis GC 2242 = assay: MIC, broth microdilution; details: Enterococcus faecalis, GC2242, E. faecalis GC 2242
E. coli GC 2271 = assay: MIC, broth microdilution; details: Escherichia coli, GC2271, E. coli GC 2271
Method: as §1, §2

E. coli GC 2232 = assay: MIC, broth microdilution; details: Escherichia coli, GC2232, E. coli GC 2232
S. agalactiae GC 4564 = assay: MIC, broth microdilution; details: Streptococcus agalactiae, GC4564, S. agalactiae GC 4564
E. coli GC 4559 = assay: MIC, broth microdilution; details: Escherichia coli, GC4559, E. coli GC 4559
P. aeruginosa GC 2214 = assay: MIC, broth microdilution; details: Pseudomonas aeruginosa, GC2214, P. aeruginosa GC 2214
Staph. aureus Smith = assay: In vivo activity (oral, iv; ED50) against Staph. aureus Smith in mice
Method: Representative examples of compounds of Formula I were tested for the oral efficacy using S. aureus Smith in mice.

E. coli GC 2270 = assay: MIC, broth microdilution; details: Escherichia coli, GC2270, E. coli GC 2270
[1] = c. albicans GC 3066, Water pre-incubation
[2] = 20 h, read-out: Range of MIC, E. coli (Mouse Serum)
[3] = read-out: Minimum inhibitory concentration (MIC), E. coli (mouse serum)
[4] = read-out: Minimum inhibitory concentration (MIC), E. coli (water)
[5] = read-out: Range of MIC, E. coli (Water)

## CCCCN(CC(=O)Nc1cc(N(C)C)c2c(c1O)C(=O)C1=C(O)[C@]3(O)C(=O)C(C(N)=O)=C(O)[C@@H](N(C)C)C3CC1C2)C(=O)OCOC(=O)C(C)C (stereo partly drawn) [Example 1, ({[(2-{[(7S,10aS)-9-(aminocarbonyl)-4,7-bis(dimethylamino)-1,8,10a,11-tetrahydroxy-10,12-dioxo-5,5a,6,6a,7,10,10a,12-octahydrotetracen-2-yl]amino}-2-oxoethyl)(butyl)amino]carbonyl}oxy)methyl 2-methylpropanoate]
E. faecalis GC 2265; Mouse Serum pre-incubation
  MIC: 1 µg/mL (≈ 1.37 µM)
E. faecalis GC 2265; Water pre-incubation
  MIC: 4 µg/mL (≈ 5.48 µM)
S. pyogenes GC 4563; Mouse Serum pre-incubation
  MIC: 0.25 µg/mL (≈ 0.343 µM)
S. pyogenes GC 4563; Water pre-incubation
  MIC: 0.5 µg/mL (≈ 0.685 µM)
E. coli GC 3226; Mouse Serum pre-incubation
  MIC: 1 µg/mL (≈ 1.37 µM)
E. coli GC 3226; Water pre-incubation
  MIC: 32 µg/mL (≈ 43.8 µM)
S. pneumoniae+ GC 4465; Mouse Serum pre-incubation
  MIC: 2 µg/mL (≈ 2.74 µM)
S. pneumoniae+ GC 4465; Water pre-incubation
  MIC: 2 µg/mL (≈ 2.74 µM)
c. albicans GC 3066; Candida albicans, GC3066
  MIC: > 64 µg/mL
c. albicans GC 3066; [1]
  MIC: >64 UG/ML
E. faecium GC 2243; Mouse Serum pre-incubation
  MIC: 1 µg/mL (≈ 1.37 µM)
E. faecium GC 2243; Water pre-incubation
  MIC: 2 µg/mL (≈ 2.74 µM)
S. aureus GC 6469; Mouse Serum pre-incubation
  MIC: 2 µg/mL (≈ 2.74 µM)
S. aureus GC 6469; Water pre-incubation
  MIC: 8 µg/mL (≈ 11 µM)
S. aureus GC 4536; Mouse Serum pre-incubation
  MIC: 2 µg/mL (≈ 2.74 µM)
S. aureus GC 4536; Water pre-incubation
  MIC: 4 µg/mL (≈ 5.48 µM)
E. coli GC 1073; Mouse Serum pre-incubation
  MIC: 1 µg/mL (≈ 1.37 µM)
E. coli GC 1073; Water pre-incubation
  MIC: 32 µg/mL (≈ 43.8 µM)
E. coli; [2]
  MIC: 0.5 to 1 µg/mL (≈ 0.685 to 1.37 µM)
E. coli; [3]
  MIC: 0.5 to 1 µg/mL (≈ 0.685 to 1.37 µM)
E. coli; [4]
  MIC: 16 to 64 µg/mL (≈ 21.9 to 87.7 µM)
E. coli; [5]
  MIC: 16 to 64 µg/mL (≈ 21.9 to 87.7 µM)
S. aureus GC 6335; Mouse Serum pre-incubation
  MIC: 2 µg/mL (≈ 2.74 µM)
S. aureus GC 6335; Water pre-incubation
  MIC: 4 µg/mL (≈ 5.48 µM)
S. aureus GC 2216; Mouse Serum pre-incubation
  MIC: 1 µg/mL (≈ 1.37 µM)
S. aureus GC 2216; Water pre-incubation
  MIC: 4 µg/mL (≈ 5.48 µM)
E. faecalis GC 2242; Mouse Serum pre-incubation
  MIC: 1 µg/mL (≈ 1.37 µM)
E. faecalis GC 2242; Water pre-incubation
  MIC: 4 µg/mL (≈ 5.48 µM)
E. coli GC 2271; Mouse Serum pre-incubation
  MIC: 0.5 µg/mL (≈ 0.685 µM)
E. coli GC 2271; Water pre-incubation
  MIC: 16 µg/mL (≈ 21.9 µM)
E. coli GC 2232; Mouse Serum pre-incubation
  MIC: 0.5 µg/mL (≈ 0.685 µM)
E. coli GC 2232; Water pre-incubation
  MIC: 16 µg/mL (≈ 21.9 µM)
S. agalactiae GC 4564; Mouse Serum pre-incubation
  MIC: 0.5 µg/mL (≈ 0.685 µM)
S. agalactiae GC 4564; Water pre-incubation
  MIC: 1 µg/mL (≈ 1.37 µM)
E. coli GC 4559; Mouse Serum pre-incubation
  MIC: 1 µg/mL (≈ 1.37 µM)
E. coli GC 4559; Water pre-incubation
  MIC: 32 µg/mL (≈ 43.8 µM)
P. aeruginosa GC 2214; Mouse Serum pre-incubation
  MIC: 32 µg/mL (≈ 43.8 µM)
P. aeruginosa GC 2214; Water pre-incubation
  MIC: > 64 µg/mL
Staph. aureus Smith; Staphylococcus aureus, in Mus musculus, iv, read-out: ED50 SIV (Staph aureus Smith)
  ED50: 0.6 mg/kg
Staph. aureus Smith; Staphylococcus aureus, in Mus musculus, po, read-out: ED50 SOD (Staph aureus Smith)
  ED50: 4.7 mg/kg
E. coli GC 2270; Mouse Serum pre-incubation
  MIC: 0.5 µg/mL (≈ 0.685 µM)
E. coli GC 2270; Water pre-incubation
  MIC: 16 µg/mL (≈ 21.9 µM)

## CCCCN(CC(=O)Nc1cc(N(C)C)c2c(c1O)C(=O)C1=C(O)[C@]3(O)C(=O)C(C(N)=O)=C(O)[C@@H](N(C)C)C3CC1C2)C(=O)OCOC(=O)c1ccc(OC)cc1 (stereo partly drawn) [Example 2, ({[(2-{[(7S,10aS)-9-(aminocarbonyl)-4,7-bis(dimethylamino)-1,8,10a,11-tetrahydroxy-10,12-dioxo-5,5a,6,6a,7,10,10a,12-octahydrotetracen-2-yl]amino}-2-oxoethyl)(butyl)amino]carbonyl}oxy)methyl 4-methoxybenzoate]
E. faecalis GC 2265; Mouse Serum pre-incubation
  MIC: 4 µg/mL (≈ 5.04 µM)
E. faecalis GC 2265; Water pre-incubation
  MIC: 8 µg/mL (≈ 10.1 µM)
S. pyogenes GC 4563; Mouse Serum pre-incubation
  MIC: 0.25 µg/mL (≈ 0.315 µM)
S. pyogenes GC 4563; Water pre-incubation
  MIC: 0.25 µg/mL (≈ 0.315 µM)
E. coli GC 3226; Mouse Serum pre-incubation
  MIC: 4 µg/mL (≈ 5.04 µM)
E. coli GC 3226; Water pre-incubation
  MIC: 64 µg/mL (≈ 80.6 µM)
S. pneumoniae+ GC 4465; Mouse Serum pre-incubation
  MIC: 2 µg/mL (≈ 2.52 µM)
S. pneumoniae+ GC 4465; Water pre-incubation
  MIC: 4 µg/mL (≈ 5.04 µM)
c. albicans GC 3066; Candida albicans, GC3066
  MIC: > 64 µg/mL
c. albicans GC 3066; [1]
  MIC: >64 UG/ML
E. faecium GC 2243; Mouse Serum pre-incubation
  MIC: 1 µg/mL (≈ 1.26 µM)
E. faecium GC 2243; Water pre-incubation
  MIC: 4 µg/mL (≈ 5.04 µM)
S. aureus GC 6469; Mouse Serum pre-incubation
  MIC: 2 µg/mL (≈ 2.52 µM)
S. aureus GC 6469; Water pre-incubation
  MIC: 4 µg/mL (≈ 5.04 µM)
S. aureus GC 4536; Mouse Serum pre-incubation
  MIC: 2 µg/mL (≈ 2.52 µM)
S. aureus GC 4536; Water pre-incubation
  MIC: 4 µg/mL (≈ 5.04 µM)
E. coli GC 1073; Mouse Serum pre-incubation
  MIC: 4 µg/mL (≈ 5.04 µM)
E. coli GC 1073; Water pre-incubation
  MIC: 64 µg/mL (≈ 80.6 µM)
E. coli; [2]
  MIC: 1 to 4 µg/mL (≈ 1.26 to 5.04 µM)
E. coli; [3]
  MIC: 1 to 4 µg/mL (≈ 1.26 to 5.04 µM)
E. coli; [4]
  MIC: 32 to 64 µg/mL (≈ 40.3 to 80.6 µM)
E. coli; [5]
  MIC: 32 to 64 µg/mL (≈ 40.3 to 80.6 µM)
S. aureus GC 6335; Mouse Serum pre-incubation
  MIC: 8 µg/mL (≈ 10.1 µM)
S. aureus GC 6335; Water pre-incubation
  MIC: 8 µg/mL (≈ 10.1 µM)
S. aureus GC 2216; Mouse Serum pre-incubation
  MIC: 2 µg/mL (≈ 2.52 µM)
S. aureus GC 2216; Water pre-incubation
  MIC: 4 µg/mL (≈ 5.04 µM)
E. faecalis GC 2242; Mouse Serum pre-incubation
  MIC: 4 µg/mL (≈ 5.04 µM)
E. faecalis GC 2242; Water pre-incubation
  MIC: 4 µg/mL (≈ 5.04 µM)
E. coli GC 2271; Mouse Serum pre-incubation
  MIC: 1 µg/mL (≈ 1.26 µM)
E. coli GC 2271; Water pre-incubation
  MIC: 64 µg/mL (≈ 80.6 µM)
E. coli GC 2232; Mouse Serum pre-incubation
  MIC: 2 µg/mL (≈ 2.52 µM)
E. coli GC 2232; Water pre-incubation
  MIC: 64 µg/mL (≈ 80.6 µM)
S. agalactiae GC 4564; Mouse Serum pre-incubation
  MIC: 2 µg/mL (≈ 2.52 µM)
S. agalactiae GC 4564; Water pre-incubation
  MIC: 2 µg/mL (≈ 2.52 µM)
E. coli GC 4559; Mouse Serum pre-incubation
  MIC: 1 µg/mL (≈ 1.26 µM)
E. coli GC 4559; Water pre-incubation
  MIC: 64 µg/mL (≈ 80.6 µM)
P. aeruginosa GC 2214; Mouse Serum pre-incubation
  MIC: > 64 µg/mL
P. aeruginosa GC 2214; Water pre-incubation
  MIC: > 64 µg/mL
Staph. aureus Smith; Staphylococcus aureus, in Mus musculus, po, read-out: ED50 Staph Smith SOD
  ED50: 13.3 mg/kg
Staph. aureus Smith; iv, read-out: ED50 Staph Smith SIV
  ED50: 0.71 mg/kg
E. coli GC 2270; Mouse Serum pre-incubation
  MIC: 1 µg/mL (≈ 1.26 µM)
E. coli GC 2270; Water pre-incubation
  MIC: 64 µg/mL (≈ 80.6 µM)
